Results from US8501796B2, “Ester pro-drugs of [3-(1-(1H-imidazol-4-yl)ethyl)-2-methylphenyl] methanol for lowering intraocular pressure” (Allergan, Inc., priority 2010, dated 2013).

What was measured:
[1] = test system: Normotensive male Dutch-Belted rabbits; experiment: IOP lowering in normotensive rabbits after a topical eye drop; assay type: in vivo; details: rabbit, single 50 μl topical drop yielding 0.15% or 0.3% of active metabolite, 1% polysorbate 80 pH 5.5; IOP measured 0-8 hours; FIG. 1
Procedure: The experimental animals used, were Normotensive male Dutch-Belted rabbits (Myrtle's Rabbitry) over 6 months in age (n=4/compound/dose screened). A single drop (50 μl) of the drug formulation, which yields 0.15% or 0.3% of the active metabolite when completely hydrolyzed in 1% polysorbate 80 at pH 5.5, was administered topically by pipette onto the right eye (treated eye) at approximately 0700 hours. IOP of the rabbits (treated and untreated eyes) was measured 0 hours before and at 0.5, 1, 2, 3, 4, 6 and 8 hours after topical eyedrop administration. IOP at the time of eye drop administration (0 hours) was used as a baseline value. Prior to the tonometric measurements, 0.05% proparacaine (50 μl) was administered to each eye. Tonometric IOP measurements were obtained with a Mentor Pneumontonmeter. Additionally, all studies were masked. At least 1 week of wash-out time was allowed for each rabbit between dosings. All animals were examined for sedation, ocular irritation, and changes in pupil diameter throughout the course of the experiments.

[2] = test system: monkeys; experiment: Intraocular pressure-lowering effect in monkeys compared to placebo; assay type: in vivo; details: monkeys treated with composition containing the compound

Structure (SMILES): Cc1c(COC(=O)C(C)C)cccc1[C@H](C)c1c[nH]cn1 [Compound 1, iso-Butyric acid 3-[(S)-1-(1H-imidazol-4-yl)-ethyl]-2-methyl-benzyl ester]
- IOP lowering capacity (efficacy) compared to Alphagan P [1]: equal or comparable efficacy to Alphagan P®
- intraocular pressure duration compared to Alphagan P [1]: longer intraocular pressure duration than Alphagan P®
- time for which the decrease in intraocular pressure is maintained [2]: up to 24 hours
